# Species: Rattus norvegicus
# Test: Open TG-GATES - Regimen: Daily Repeat
# Format: toxicity, organism-based, Sprague-Dawley
# Set-up: regimen Daily Repeat, gender Male, age 6 weeks
# Conditions: in vivo, po, 100 mg/kg, route gavage, dose level Low; for APTT / Bas / Eos / Fbg / Hb / Ht / Lym / MCH / MCHC / MCV / Mono / Neu / PT / Plat / RBC / Ret / WBC: tissue Blood; for KIDNEY_L / KIDNEY_R / KIDNEY_TOTAL: tissue Kidney; for LIVER: tissue Liver; for A/G / ALP / ALT / AST / BUN / CRE / Ca / Cl / DBIL / GLC / IP / K / LDH / Na / PL / RALB / TBIL / TC / TG / TP / gamma-GTP: tissue Plasma
compound,measurement,setting,value
CCOC(=O)CCC(=O)O[C@H]1[C@H](O[C@@H]2[C@@H](C)[C@H](O[C@H]3C[C@@](C)(OC)[C@@H](O)[C@H](C)O3)[C@@H](C)C(=O)O[C@H](CC)[C@@](C)(O)[C@H](O)[C@@H](C)C(=O)[C@H](C)C[C@@]2(C)O)O[C@H](C)C[C@@H]1N(C)C [ERYTHROMYCIN ETHYLSUCCINATE],TERMINAL_BW,"72 h, time 3 day",235.5 g
same,APTT,"72 h, time 3 day",21.4 s
same,Bas,"72 h, time 3 day",0%
same,Eos,"72 h, time 3 day",1%
same,Fbg,"72 h, time 3 day",324.6 mg/dL
same,Hb,"72 h, time 3 day",13.4 g/dL
same,Ht,"72 h, time 3 day",39.4%
same,Lym,"72 h, time 3 day",83.4%
same,MCH,"72 h, time 3 day",20.7 pg
same,MCHC,"72 h, time 3 day",33.9%
same,MCV,"72 h, time 3 day",61.1 fL
same,Mono,"72 h, time 3 day",3%
same,Neu,"72 h, time 3 day",11.6%
same,PT,"72 h, time 3 day",15.9 s
same,Plat,"72 h, time 3 day",120.2 x10_4/uL
same,RBC,"72 h, time 3 day",645.4 x10_4/ul
same,Ret,"72 h, time 3 day",4.9%
same,WBC,"72 h, time 3 day",101.8 x10_2/uL
same,KIDNEY_L,"72 h, time 3 day",1 g
same,KIDNEY_R,"72 h, time 3 day",1 g
same,KIDNEY_TOTAL,"72 h, time 3 day",2 g
same,LIVER,"72 h, time 3 day",10.5 g
same,A/G,"72 h, time 3 day",1.2
same,ALP,"72 h, time 3 day",1729.8 IU/L
same,ALT,"72 h, time 3 day",44.4 IU/L
same,AST,"72 h, time 3 day",77.2 IU/L
same,BUN,"72 h, time 3 day",18 mg/dL
same,CRE,"72 h, time 3 day",0.1 mg/dL
same,Ca,"72 h, time 3 day",10.3 mg/dL
same,Cl,"72 h, time 3 day",107.2 meq/L
same,DBIL,"72 h, time 3 day",0 mg/dL
same,GLC,"72 h, time 3 day",187.2 mg/dL
same,IP,"72 h, time 3 day",7.1 mg/dL
same,K,"72 h, time 3 day",4.4 meq/L
same,LDH,"72 h, time 3 day",179.8 IU/L
same,Na,"72 h, time 3 day",141.4 meq/L
same,PL,"72 h, time 3 day",130 mg/dL
same,RALB,"72 h, time 3 day",3 g/dL
same,TBIL,"72 h, time 3 day",0.024 mg/dL
same,TC,"72 h, time 3 day",69.2 mg/dL
same,TG,"72 h, time 3 day",72.2 mg/dL
same,TP,"72 h, time 3 day",5.5 g/dL
same,gamma-GTP,"72 h, time 3 day",1.2 IU/L
same,TERMINAL_BW,"[…], time 7 day",255.3 g
same,TERMINAL_BW,"[…], time 14 day",320.9 g
same,TERMINAL_BW,"[…], time 28 day",401.9 g
same,APTT,"[…], time 7 day",21.7 s
same,Bas,"[…], time 7 day",0%
same,Eos,"[…], time 7 day",0.8%
same,Fbg,"[…], time 7 day",311.8 mg/dL
same,Hb,"[…], time 7 day",13.6 g/dL
same,Ht,"[…], time 7 day",40%
same,Lym,"[…], time 7 day",84.6%
same,MCH,"[…], time 7 day",20.4 pg
same,MCHC,"[…], time 7 day",33.9%
same,MCV,"[…], time 7 day",60.1 fL
same,Mono,"[…], time 7 day",2.2%
same,Neu,"[…], time 7 day",11.4%
same,PT,"[…], time 7 day",16.8 s
same,Plat,"[…], time 7 day",107.9 x10_4/uL
same,RBC,"[…], time 7 day",667.2 x10_4/ul
same,Ret,"[…], time 7 day",5.3%
same,WBC,"[…], time 7 day",77.9 x10_2/uL
same,APTT,"[…], time 14 day",20.2 s
same,Bas,"[…], time 14 day",0%
same,Eos,"[…], time 14 day",1.2%
same,Fbg,"[…], time 14 day",338 mg/dL
same,Hb,"[…], time 14 day",13.8 g/dL
same,Ht,"[…], time 14 day",39.8%
same,Lym,"[…], time 14 day",82%
same,MCH,"[…], time 14 day",20.6 pg
same,MCHC,"[…], time 14 day",34.9%
same,MCV,"[…], time 14 day",59.1 fL
same,Mono,"[…], time 14 day",2.2%
same,Neu,"[…], time 14 day",13.8%
same,PT,"[…], time 14 day",16.3 s
same,Plat,"[…], time 14 day",113.3 x10_4/uL
same,RBC,"[…], time 14 day",673.2 x10_4/ul
same,Ret,"[…], time 14 day",4.7%
same,WBC,"[…], time 14 day",110.5 x10_2/uL
same,APTT,"[…], time 28 day",23.6 s
same,Bas,"[…], time 28 day",0%
same,Eos,"[…], time 28 day",1.2%
same,Fbg,"[…], time 28 day",339 mg/dL
same,Hb,"[…], time 28 day",15.1 g/dL
same,Ht,"[…], time 28 day",43.9%
same,Lym,"[…], time 28 day",86%
same,MCH,"[…], time 28 day",19.6 pg
same,MCHC,"[…], time 28 day",34.5%
same,MCV,"[…], time 28 day",56.8 fL
same,Mono,"[…], time 28 day",2%
same,Neu,"[…], time 28 day",9.4%
same,PT,"[…], time 28 day",16 s
same,Plat,"[…], time 28 day",107.2 x10_4/uL
same,RBC,"[…], time 28 day",772.2 x10_4/ul
same,Ret,"[…], time 28 day",2.7%
same,WBC,"[…], time 28 day",102.2 x10_2/uL
same,KIDNEY_L,"[…], time 7 day",1.1 g
same,KIDNEY_R,"[…], time 7 day",1.1 g
same,KIDNEY_TOTAL,"[…], time 7 day",2.2 g
same,KIDNEY_L,"[…], time 14 day",1.2 g
same,KIDNEY_R,"[…], time 14 day",1.3 g
same,KIDNEY_TOTAL,"[…], time 14 day",2.5 g
same,KIDNEY_L,"[…], time 28 day",1.4 g
same,KIDNEY_R,"[…], time 28 day",1.4 g
same,KIDNEY_TOTAL,"[…], time 28 day",2.9 g
same,LIVER,"[…], time 7 day",11.1 g
same,LIVER,"[…], time 14 day",13.3 g
same,LIVER,"[…], time 28 day",16.2 g
same,A/G,"[…], time 7 day",1.1
same,ALP,"[…], time 7 day",1592.6 IU/L
same,ALT,"[…], time 7 day",36.4 IU/L
same,AST,"[…], time 7 day",64.6 IU/L
same,BUN,"[…], time 7 day",18.4 mg/dL
same,CRE,"[…], time 7 day",0.2 mg/dL
same,Ca,"[…], time 7 day",10.5 mg/dL
same,Cl,"[…], time 7 day",108.2 meq/L
same,DBIL,"[…], time 7 day",0 mg/dL
same,GLC,"[…], time 7 day",194.2 mg/dL
same,IP,"[…], time 7 day",7 mg/dL
same,K,"[…], time 7 day",4.2 meq/L
same,LDH,"[…], time 7 day",129 IU/L
same,Na,"[…], time 7 day",141.2 meq/L
same,PL,"[…], time 7 day",135.8 mg/dL
same,RALB,"[…], time 7 day",2.9 g/dL
same,TBIL,"[…], time 7 day",0 mg/dL
same,TC,"[…], time 7 day",68.6 mg/dL
same,TG,"[…], time 7 day",111.4 mg/dL
same,TP,"[…], time 7 day",5.5 g/dL
same,gamma-GTP,"[…], time 7 day",1.6 IU/L
same,A/G,"[…], time 14 day",1.2
same,ALP,"[…], time 14 day",1442.8 IU/L
same,ALT,"[…], time 14 day",36.8 IU/L
same,AST,"[…], time 14 day",66 IU/L
same,BUN,"[…], time 14 day",20.2 mg/dL
same,CRE,"[…], time 14 day",0.2 mg/dL
same,Ca,"[…], time 14 day",10.7 mg/dL
same,Cl,"[…], time 14 day",107.2 meq/L
same,DBIL,"[…], time 14 day",0 mg/dL
same,GLC,"[…], time 14 day",196.8 mg/dL
same,IP,"[…], time 14 day",6.8 mg/dL
same,K,"[…], time 14 day",4.4 meq/L
same,LDH,"[…], time 14 day",150 IU/L
same,Na,"[…], time 14 day",142.2 meq/L
same,PL,"[…], time 14 day",150.2 mg/dL
same,RALB,"[…], time 14 day",3.1 g/dL
same,TBIL,"[…], time 14 day",0.005 mg/dL
same,TC,"[…], time 14 day",79 mg/dL
same,TG,"[…], time 14 day",102 mg/dL
same,TP,"[…], time 14 day",5.7 g/dL
same,gamma-GTP,"[…], time 14 day",2.2 IU/L
same,A/G,"[…], time 28 day",1.2
same,ALP,"[…], time 28 day",1003.2 IU/L
same,ALT,"[…], time 28 day",37.8 IU/L
same,AST,"[…], time 28 day",59.2 IU/L
same,BUN,"[…], time 28 day",19.2 mg/dL
same,CRE,"[…], time 28 day",0.2 mg/dL
same,Ca,"[…], time 28 day",10.3 mg/dL
same,Cl,"[…], time 28 day",106.4 meq/L
same,DBIL,"[…], time 28 day",0 mg/dL
same,GLC,"[…], time 28 day",194.4 mg/dL
same,IP,"[…], time 28 day",6.9 mg/dL
same,K,"[…], time 28 day",4.1 meq/L
same,LDH,"[…], time 28 day",114 IU/L
same,Na,"[…], time 28 day",141.8 meq/L
same,PL,"[…], time 28 day",152 mg/dL
same,RALB,"[…], time 28 day",3.1 g/dL
same,TBIL,"[…], time 28 day",0.006 mg/dL
same,TC,"[…], time 28 day",78.8 mg/dL
same,TG,"[…], time 28 day",127.4 mg/dL
same,TP,"[…], time 28 day",5.9 g/dL
same,gamma-GTP,"[…], time 28 day",2.2 IU/L

# Source: ChEMBL document CHEMBL3885861, “Open TG-GATES”
